# Source: the supplement of paper PMC10307832
# Experiments:
# Assay in all cases: relative viability (nuclei count vs DMSO), 5 days (fraction); higher = more cells survive
# Pemetrexed + Dasatinib = compound: Nc1nc2[nH]cc(CCc3ccc(C(=O)N[C@@H](CCC(=O)O)C(=O)O)cc3)c2c(=O)[nH]1 [Pemetrexed] + Cc1nc(Nc2ncc(C(=O)Nc3c(C)cccc3Cl)s2)cc(N2CCN(CCO)CC2)n1 [Dasatinib] (partner 0.075 µM)
# In short: (§1)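 Values are medians from duplicate plates. Each reflects relative viability, defined as the nuclei count of treated wells over that of vehicle wells. Lung cancer cell lines in 1536-well plates were pin-tool dosed one day after seeding with one drug alone or with a fixed anchor-drug dose plus five library-drug doses (not always all listed) in √10 steps, then fixed, stained and imaged at 4× after 5 days.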
# Pemetrexed + Pictilisib = compound: Nc1nc2[nH]cc(CCc3ccc(C(=O)N[C@@H](CCC(=O)O)C(=O)O)cc3)c2c(=O)[nH]1 [Pemetrexed] + CS(=O)(=O)N1CCN(Cc2cc3nc(-c4cccc5[nH]ncc45)nc(N4CCOCC4)c3s2)CC1 [Pictilisib] (partner 1 µM)
# In short: as §1
# Idelalisib + Dasatinib = compound: CC[C@H](Nc1ncnc2[nH]cnc12)c1nc2cccc(F)c2c(=O)n1-c1ccccc1 [Idelalisib] + Cc1nc(Nc2ncc(C(=O)Nc3c(C)cccc3Cl)s2)cc(N2CCN(CCO)CC2)n1 [Dasatinib] (partner 0.075 µM)
# In short: as §1
# Idelalisib + Vorinostat = compound: CC[C@H](Nc1ncnc2[nH]cnc12)c1nc2cccc(F)c2c(=O)n1-c1ccccc1 [Idelalisib] + O=C(CCCCCCC(=O)Nc1ccccc1)NO [Vorinostat] (partner 1 µM)
# In short: as §1
Cell Line,relative viability (Pemetrexed + Dasatinib; first compound 0.002 µM),relative viability (Pemetrexed + Dasatinib; first compound 0.006325 µM),relative viability (Pemetrexed + Dasatinib; first compound 0.02 µM),relative viability (Pemetrexed + Dasatinib; first compound 0.06325 µM),relative viability (Pemetrexed + Dasatinib; first compound 0.2 µM),relative viability (Pemetrexed + Pictilisib; first compound 0.002 µM),relative viability (Pemetrexed + Pictilisib; first compound 0.006325 µM),relative viability (Pemetrexed + Pictilisib; first compound 0.02 µM),relative viability (Pemetrexed + Pictilisib; first compound 0.06325 µM),relative viability (Pemetrexed + Pictilisib; first compound 0.2 µM),relative viability (Idelalisib + Dasatinib; first compound 0.04 µM),relative viability (Idelalisib + Dasatinib; first compound 0.1265 µM),relative viability (Idelalisib + Dasatinib; first compound 0.4 µM),relative viability (Idelalisib + Dasatinib; first compound 1.265 µM),relative viability (Idelalisib + Dasatinib; first compound 4 µM),relative viability (Idelalisib + Vorinostat; first compound 0.04 µM),relative viability (Idelalisib + Vorinostat; first compound 0.1265 µM),relative viability (Idelalisib + Vorinostat; first compound 0.4 µM),relative viability (Idelalisib + Vorinostat; first compound 1.265 µM),relative viability (Idelalisib + Vorinostat; first compound 4 µM)
NCI-H1755,0.397,0.409,0.448,0.436,0.379,0.327,0.416,0.532,0.45,0.318,0.399,0.456,0.312,0.366,0.338,0.884,0.748,0.751,0.634,0.723
HCC-15,0.661,0.609,0.619,0.31,0.148,0.629,0.777,0.766,0.544,0.238,0.614,0.591,0.52,0.674,0.491,0.764,0.865,0.888,0.889,0.69
NCI-H2087,0.819,0.808,0.974,0.751,0.59,0.692,0.79,0.938,0.67,0.581,0.966,0.906,0.696,1.03,0.514,0.592,0.667,0.614,0.781,0.204
LCLC-103H,0.43,0.508,0.55,0.436,0.489,0.639,0.588,0.714,0.61,0.669,0.371,0.388,0.393,0.535,0.309,0.864,0.926,0.664,0.798,0.58
NCI-H1650,0.42,0.32,0.326,0.235,0.23,0.545,0.559,0.658,0.333,0.226,0.322,0.321,0.24,0.315,0.23,0.513,0.604,0.58,0.587,0.614
LK-2,0.289,0.198,0.318,0.341,0.254,–,0.472,0.654,0.466,0.41,0.277,0.294,–,0.273,0.283,0.307,0.295,0.173,0.338,0.221
ChaGo-K-1,0.59,0.555,0.591,0.266,0.237,0.609,0.793,0.597,0.224,0.28,0.548,0.516,0.534,0.563,0.585,0.832,0.702,0.695,0.82,0.732
HCC-78,0.305,0.453,0.363,0.241,0.246,–,0.179,0.197,0.14,0.157,0.407,0.378,0.311,0.361,0.41,0.462,0.448,0.393,0.468,0.332
NCI-H1666,0.778,0.857,0.818,0.754,0.585,0.373,0.481,0.347,0.497,0.306,0.79,0.863,0.676,0.79,0.773,1.01,1.02,0.962,1.05,1.08
EKVX,0.572,0.544,0.615,0.336,0.479,0.408,0.441,0.418,0.432,0.269,0.492,0.549,0.348,0.436,0.341,0.726,0.792,0.676,0.703,0.399
COR-L 105,0.349,0.216,0.399,0.363,0.398,0.406,0.463,0.423,0.386,0.416,0.363,0.379,0.31,0.354,0.334,0.859,0.876,0.778,0.724,1.11
NCI-H322M,0.248,0.257,0.262,0.242,0.235,0.29,0.449,0.553,0.49,0.567,0.284,0.246,0.248,0.251,0.263,1.03,0.993,0.799,0.899,0.911
HARA,0.231,0.237,0.327,0.2,0.162,0.465,0.374,0.436,0.235,0.204,0.279,0.235,0.174,0.228,0.238,0.453,0.504,0.473,0.574,0.39
NCI-H2023,0.506,0.505,0.6,0.433,0.195,0.136,0.231,0.237,0.218,0.117,0.625,0.549,0.438,0.487,0.375,0.909,0.702,0.469,0.375,0.682
NCI-H1437,–,0.473,0.468,0.334,0.21,0.297,0.422,0.389,0.267,0.193,0.378,0.46,0.307,0.453,0.478,0.902,0.932,0.895,0.964,0.903
BEN,0.374,0.288,0.345,0.303,0.349,0.53,0.564,0.591,0.539,0.525,0.305,0.318,0.32,0.364,0.31,0.531,0.53,0.552,0.59,0.514

Cell Line,relative viability (Pemetrexed + Dasatinib; first compound 0.002 µM),relative viability (Pemetrexed + Dasatinib; first compound 0.006325 µM),relative viability (Pemetrexed + Dasatinib; first compound 0.02 µM),relative viability (Pemetrexed + Dasatinib; first compound 0.06325 µM),relative viability (Pemetrexed + Dasatinib; first compound 0.2 µM),relative viability (Pemetrexed + Pictilisib; first compound 0.002 µM),relative viability (Pemetrexed + Pictilisib; first compound 0.006325 µM),relative viability (Pemetrexed + Pictilisib; first compound 0.02 µM),relative viability (Pemetrexed + Pictilisib; first compound 0.06325 µM),relative viability (Pemetrexed + Pictilisib; first compound 0.2 µM),relative viability (Idelalisib + Dasatinib; first compound 0.04 µM),relative viability (Idelalisib + Dasatinib; first compound 0.1265 µM),relative viability (Idelalisib + Dasatinib; first compound 0.4 µM),relative viability (Idelalisib + Dasatinib; first compound 1.265 µM),relative viability (Idelalisib + Dasatinib; first compound 4 µM),relative viability (Idelalisib + Vorinostat; first compound 0.04 µM),relative viability (Idelalisib + Vorinostat; first compound 0.1265 µM),relative viability (Idelalisib + Vorinostat; first compound 0.4 µM),relative viability (Idelalisib + Vorinostat; first compound 1.265 µM),relative viability (Idelalisib + Vorinostat; first compound 4 µM)
LXF-289,0.175,0.192,0.239,0.281,0.217,0.756,0.759,0.844,0.827,0.701,0.19,0.218,0.135,0.202,0.195,0.878,0.759,0.781,0.783,0.764
NCI-H358,0.145,0.176,0.205,0.167,0.165,0.338,0.264,0.29,0.243,0.21,0.167,0.165,0.13,0.143,0.173,0.643,0.63,0.588,0.567,0.593
NCI-H1993,0.325,0.606,0.546,0.496,0.358,0.899,0.97,0.819,0.743,0.882,0.785,0.562,0.51,0.51,0.522,0.983,1.09,0.516,0.921,0.487
NCI-H727,–,0.395,0.386,0.421,0.381,0.398,0.399,0.415,0.378,0.369,0.461,0.397,–,0.353,0.386,1.24,1.17,1.12,1.25,1.05
LOU-NH91,0.495,0.576,0.599,0.457,0.345,0.511,0.488,0.551,0.453,0.392,0.599,0.561,0.482,0.42,0.542,0.998,0.899,0.794,0.726,0.91
NCI-H1975,0.249,0.333,0.429,0.342,0.275,–,0.3,0.299,0.271,0.221,0.363,0.436,0.263,0.402,0.293,0.693,0.776,0.681,0.671,0.588
PC-3 [JPC-3],0.845,0.988,1.03,0.983,0.941,0.625,0.687,0.821,0.743,0.663,0.814,0.973,0.908,0.879,0.892,1.04,0.952,0.841,0.86,0.747
NCI-H2126,0.571,0.607,0.625,0.548,0.517,0.451,0.479,0.494,0.487,0.436,0.548,0.664,0.522,0.62,0.557,0.932,0.865,0.464,0.861,0.671
LU99A,0.504,0.441,0.459,0.516,0.542,0.329,0.295,0.332,0.334,0.256,0.528,0.617,0.428,0.61,0.646,0.536,0.468,0.387,0.535,0.506
NCI-H23,0.783,0.762,0.933,0.74,0.781,0.395,0.416,0.538,0.516,0.408,0.808,0.828,0.552,–,0.825,0.674,0.657,0.395,0.317,0.62
PC-14,0.249,0.242,0.316,0.0953,0.0482,0.663,0.618,0.642,0.321,0.133,0.273,0.266,0.248,0.0361,0.223,0.901,0.709,0.633,0.363,0.68
A-427,0.618,0.696,0.711,0.689,0.664,0.646,0.759,0.804,0.746,0.642,0.783,0.685,0.568,0.704,0.671,0.921,0.889,0.833,0.901,0.874
NCI-H596,0.634,0.642,0.464,0.427,0.414,0.399,0.348,0.436,0.348,0.344,0.586,0.631,0.493,0.575,0.549,0.622,0.595,0.511,0.567,0.415
RERF-LC-KJ,0.767,0.881,0.856,0.849,0.382,0.579,0.471,0.558,0.594,0.277,0.808,0.829,0.726,0.687,0.668,0.826,0.754,0.725,0.697,0.512
NCI-H647,0.151,0.16,0.175,0.156,0.127,0.283,0.449,0.355,0.382,0.202,0.194,0.203,–,0.173,0.127,0.686,0.435,0.546,0.247,0.141
NCI-H1734,0.388,0.445,0.49,0.433,0.381,0.461,0.457,0.489,0.475,0.376,0.468,0.487,0.338,0.454,0.374,0.914,0.846,0.627,0.642,0.755
